Measured values from paper PMC6271179 (Molecules, 2014).

What was measured:
[1] = In vivo pharmacokinetics after oral (intragastric) administration to rats; details: rat
Method: Derivative 2 was administered to overnight-fasted male Wistar rats from the facility of the Department of Biomedical Sciences as a single intragastric dose (88 µmol/kg, dissolved in 250 µL water). Blood samples were obtained by the tail bleeding technique: before drug administration, rats were anesthetised with isoflurane and the tip of the tail was cut off; blood samples (80–100 µL each) were then taken from the tail tip at different time points after drug administration. Blood was collected in heparinised tubes, kept in ice and treated as described in [90] within 10 min.
For quantification purposes we assumed the same absorption coefficient.

[2] = tested on: explanted rat jejunum segments; assay: Permeation across explanted rat jejunum segments in Ussing-type chambers (ex vivo)
Method: We assayed transport of the derivatives across explanted rat jejunum segments using Ussing-type chambers.
Intestine was excised from 18 h fasted rats and transferred into a saline solution (154 mM NaCl in water) at 37 °C. The jejunum was cut into 1 cm long strips, opened longitudinally, rinsed free of luminal content and mounted in Ussing-type chambers. Apical and basolateral compartments were filled with 1 mL each of oxygenated HEPES buffer (248 mM NaCl, 55.3 mM glucose, 50 mM NaHCO3, 9.9 mM KCl, 1.9 mM MgSO4, 40 mM HEPES, pH 6.8), and incubated in a water bath at 37 °C until all chambers were assembled (approximately 20 min). The buffer was then removed and substituted with 1 mL of a 20 µM solution (in the same buffer) of the compound to be tested on the apical side (dilution from a 20 mM stock solution), and with 1 mL of fresh HEPES buffer on the basolateral one. […] During the experiment, oxygen was continuously bubbled in each basolateral compartment. […]
Samples (2 µL) were analyzed by HPLC/UV (1290 Infinity LC System, Agilent Technologies) using a reverse phase column (Zorbax RRHD Eclipse Plus C18, 1.8 µm, 50 x 2.1 mm i.d.; Agilent Technologies) and a UV diode array detector (190-500 nm). […]

CN(CCCCOC1C(O)C(O)OC(CO)C1O)C(=O)Oc1ccc(C=Cc2cc(OC(=O)N(C)CCCCOC3C(O)C(O)OC(CO)C3O)cc(OC(=O)N(C)CCCCOC3C(O)C(O)OC(CO)C3O)c2)cc1 [derivative 2, 3,4',5-Tri-[α/β-D-glucopyranose-3-(4-N-methyl-N-butoxy)]-resveratrol carbamate]
Tmax ([1]; male, Wistar, whole blood, po, 88 umol/kg, single intragastric dose 88 µmol/kg, blood, read-out: time of maximum blood levels (converted)): ~1 h | concentration of the derivative in the bloodstream ([1]; gavage 88 µmol/kg, during the 4 hours following administration): low concentrations | resveratrol and its common metabolites in blood after oral administration (hydrolysis of carbamate groups) ([1]; oral, also basolateral chamber ex vivo): Neither resveratrol nor its common metabolites were present in detectable amounts | species detected in the basolateral chamber ([2]; 20 µM apical, 2.5 h): only the intact derivative was detected | extent of translocation with SGLT-1/GLUT-2 inhibitors (phlorizin, phloretin, cytochalasin B), low glucose, non-fasted or glucose-fed rats ([2]; comparison among conditions): not to differ significantly
